# Columns and labels:
# Balb/c mice = conditions: mouse, in vivo, ip
# BALB/cAJc mice = conditions: mouse, in vivo, iv
Substance,IgG (anti-MAP antibody in sera) (Balb/c mice),IgM antibody titer against Ebola 1 (Balb/c mice),IgG (anti-MAP antibody in sera) (BALB/cAJc mice),IgM (anti-MAP antibody in sera) (BALB/cAJc mice)
Core-[PEG-IKKADGSECLP]4 [Ebola 1 MAP4],no increase,"one mouse showed an evident increase, and two mice showed mild increases",increase in IgG was seen only in the 100-μg administration group,–
Core-[PEG-FPRCRYVHK]4 [Ebola 2 MAP4],–,–,no increase,no increase
